Results as given in ChEMBL document CHEMBL4359822, “Design, synthesis of 4,5-diazafluorene derivatives and their anticancer activity via targeting telomeric DNA G-quadruplex” (Eur J Med Chem, 2019).
Blank lines part the entries; values can stand above or below the compound they belong to. Active and inactive are the calls of the source. No cut-off for these calls is given here.

Columns and labels:
[1] = tested on: A549; experiment: Inhibition of cell migration in human A549 cells at 0.2 uM incubated for 48 hrs by wound healing assay relative to control; format: functional; conditions: A549, 48 h
[2] = tested on: MCF7; experiment: Antiproliferative activity against human MCF7 cells incubated for 36 hrs by CCK8 assay; format: functional, cell-based; conditions: MCF7, 36 h
[3] = tested on: MCF7; experiment: Inhibition of cell migration in human MCF7 cells at 0.2 uM incubated for 48 hrs by wound healing assay relative to control; format: functional; conditions: MCF7, 48 h
[4] = tested on: HepG2; experiment: Antiproliferative activity against human HepG2 cells incubated for 36 hrs by CCK8 assay; format: functional, cell-based; conditions: HepG2, 36 h
[5] = Selectivity index, ratio of IC50 for human MRC5 cells to IC50 for human A549 cells; format: toxicity; conditions: MRC5 cells versus A549 cells, read-out: Ratio IC50
[6] = tested on: MRC5; experiment: Antiproliferative activity against human MRC5 cells incubated for 36 hrs by CCK8 assay; format: cell-based; conditions: MRC5, 36 h
[7] = tested on: HepG2; experiment: Antiproliferative activity against human HepG2 cells at 10 uM incubated for 36 hrs by CCK8 assay; format: functional, cell-based
[8] = tested on: AGS; experiment: Inhibition of cell migration in human AGS cells at 0.1 uM incubated for 48 hrs by wound healing assay relative to control; format: functional
[9] = tested on: MCF7; experiment: Antiproliferative activity against human MCF7 cells at 10 uM incubated for 36 hrs by CCK8 assay; format: functional, cell-based
[10] = Selectivity index, ratio of IC50 for human MRC5 cells to IC50 for human MCF7 cells; format: toxicity; conditions: MRC5 cells versus MCF7 cells, read-out: Ratio IC50
[11] = tested on: AGS; experiment: Inhibition of cell migration in human AGS cells at 0.4 uM incubated for 48 hrs by wound healing assay relative to control; format: functional
[12] = tested on: MCF7; experiment: Inhibition of cell migration in human MCF7 cells at 0.4 uM incubated for 48 hrs by wound healing assay relative to control; format: functional; conditions: MCF7, 48 h
[13] = tested on: A549; experiment: Inhibition of cell migration in human A549 cells at 0.4 uM incubated for 48 hrs by wound healing assay relative to control; format: functional; conditions: A549, 48 h
[14] = Binding affinity to Tel-26nt G-rich DNA (unknown origin) assessed as change in melting temperature by UV-vis spectrophotometry
[15] = Binding affinity to Tel-26nt G-rich DNA (unknown origin) assessed as change in melting temperature at 8 uM by UV-vis spectrophotometry (reference value: 38.33 +/- 0.07 degreeC)
[16] = Selectivity index, ratio of IC50 for human MRC5 cells to IC50 for human HEPG2 cells
[17] = tested on: A549; experiment: Antiproliferative activity against human A549 cells incubated for 36 hrs by CCK8 assay; format: functional, cell-based; conditions: A549, 36 h
[18] = Binding affinity to Tel-26nt G-rich DNA (unknown origin) assessed as change in melting temperature at 2 uM by UV-vis spectrophotometry (reference value: 38.33 +/- 0.07 degreeC)
[19] = tested on: HepG2; experiment: Inhibition of cell migration in human HepG2 cells at 0.2 uM incubated for 48 hrs by wound healing assay relative to control; format: functional; conditions: HepG2, 48 h
[20] = tested on: A549; experiment: Antiproliferative activity against human A549 cells at 10 uM incubated for 36 hrs by CCK8 assay; format: functional, cell-based
[21] = Binding affinity to Tel-26nt G-rich DNA (unknown origin) incubated for 24 hrs by EMSA
[22] = tested on: HepG2; experiment: Inhibition of cell migration in human HepG2 cells at 0.4 uM incubated for 48 hrs by wound healing assay relative to control; format: functional; conditions: HepG2, 48 h
[23] = tested on: HepG2; experiment: Inhibition of cell migration in human HepG2 cells at 0.1 uM incubated for 48 hrs by wound healing assay relative to control; format: functional; conditions: HepG2, 48 h
[24] = tested on: AGS; experiment: Antiproliferative activity against human AGS cells incubated for 36 hrs by CCK8 assay; format: functional, cell-based
[25] = Binding affinity to Tel-26nt G-rich DNA (unknown origin) at => 3 uM incubated for 24 hrs by EMSA
[26] = tested on: A549; experiment: Inhibition of cell migration in human A549 cells at 0.1 uM incubated for 48 hrs by wound healing assay relative to control; format: functional; conditions: A549, 48 h
[27] = tested on: AGS; experiment: Antiproliferative activity against human AGS cells at 10 uM incubated for 36 hrs by CCK8 assay; format: functional, cell-based
[28] = target: Telomerase reverse transcriptase (Homo sapiens) (UniProt O14746); experiment: Inhibition of telomerase activity in human A549 cells at 2 to 8 uM by TRAP assay; format: cell-based
Chain of Telomerase reverse transcriptase (Homo sapiens) (O14746 whole entry): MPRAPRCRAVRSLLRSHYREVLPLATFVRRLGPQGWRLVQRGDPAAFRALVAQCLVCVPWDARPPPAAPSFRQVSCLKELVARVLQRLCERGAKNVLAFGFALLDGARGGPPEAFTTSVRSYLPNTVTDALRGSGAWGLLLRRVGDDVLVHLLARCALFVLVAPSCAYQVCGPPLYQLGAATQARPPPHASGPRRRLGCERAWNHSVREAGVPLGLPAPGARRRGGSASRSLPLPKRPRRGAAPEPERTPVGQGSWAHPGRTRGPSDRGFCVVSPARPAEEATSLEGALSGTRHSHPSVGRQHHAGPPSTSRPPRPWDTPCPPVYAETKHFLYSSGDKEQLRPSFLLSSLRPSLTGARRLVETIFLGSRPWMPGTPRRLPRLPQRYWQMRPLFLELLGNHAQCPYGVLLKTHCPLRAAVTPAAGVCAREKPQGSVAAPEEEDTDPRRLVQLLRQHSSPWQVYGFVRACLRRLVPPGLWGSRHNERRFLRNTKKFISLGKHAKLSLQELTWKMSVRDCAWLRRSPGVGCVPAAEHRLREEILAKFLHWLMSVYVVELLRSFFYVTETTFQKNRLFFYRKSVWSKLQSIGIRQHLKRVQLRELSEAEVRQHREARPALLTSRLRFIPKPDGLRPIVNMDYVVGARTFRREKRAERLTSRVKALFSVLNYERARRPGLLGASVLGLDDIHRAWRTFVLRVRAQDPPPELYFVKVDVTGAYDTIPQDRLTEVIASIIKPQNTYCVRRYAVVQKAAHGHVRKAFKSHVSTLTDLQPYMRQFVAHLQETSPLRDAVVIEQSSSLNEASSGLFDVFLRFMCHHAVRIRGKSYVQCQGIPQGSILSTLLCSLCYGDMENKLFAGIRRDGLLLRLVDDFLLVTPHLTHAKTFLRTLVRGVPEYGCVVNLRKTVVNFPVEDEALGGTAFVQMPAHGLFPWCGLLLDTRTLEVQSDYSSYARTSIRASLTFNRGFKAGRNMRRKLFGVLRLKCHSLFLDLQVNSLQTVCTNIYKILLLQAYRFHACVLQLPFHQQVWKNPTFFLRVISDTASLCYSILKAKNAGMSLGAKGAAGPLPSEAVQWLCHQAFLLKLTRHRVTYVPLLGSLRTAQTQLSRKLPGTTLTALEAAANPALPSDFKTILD

[29] = tested on: MCF7; experiment: Inhibition of cell migration in human MCF7 cells at 0.1 uM incubated for 48 hrs by wound healing assay relative to control; format: functional; conditions: MCF7, 48 h
[30] = Binding affinity to Tel-26nt G-rich DNA (unknown origin) assessed as change in melting temperature at 4 uM by UV-vis spectrophotometry (reference value: 38.33 +/- 0.07 degreeC)
[31] = tested on: AGS; experiment: Inhibition of cell migration in human AGS cells at 0.2 uM incubated for 48 hrs by wound healing assay relative to control; format: functional
[32] = Selectivity index, ratio of IC50 for human MRC5 cells to IC50 for human AGS cells; format: toxicity; conditions: MRC5 cells versus AGS cells, read-out: Ratio IC50
[33] = Binding affinity to Tel26nt double stranded DNA (unknown origin) at 4 to 16 uM measured after each titration for 15 mins during 24 hrs incubation by circular dichroism analysis
[34] = Binding affinity to Tel-26nt G-rich DNA (unknown origin) at 4 to 16 uM measured after each titration for 15 mins during 24 hrs incubation by circular dichroism analysis
[35] = Binding affinity to Tel-26nt mutated-single-stranded DNA (unknown origin) at 4 to 16 uM measured after each titration for 15 mins during 24 hrs incubation by circular dichroism analysis
[36] = Binding affinity to Tel-26nt G-rich DNA (unknown origin) at 0.25 :1 to 6 : 1 ratio of test compound to DNA measured after each titration for 15 mins during 24 hrs incubation by circular dichroism analysis

IC50 [2]: 6.7 µM
IC50 [4]: 3.32 µM
deltaTm [14]: Dose-dependent effect
Tm [15]: 62.7 °C
IC50 [17]: 3.44 µM
Tm [18]: 44 °C
Activity [21]: Dose-dependent effect
IC50 [24]: 2930 nM
Activity [25]: Active
inhibition [28]: Active
Tm [30]: 44 °C
Structure (SMILES): CN(C)CCCn1cc(C=C2c3cccnc3-c3ncccc32)c(-c2ccc(F)cc2)n1
inhibition at 0.2 µM [1]: 47.9%
inhibition at 0.2 µM [3]: 45.7%
selectivity ratio [5]: 1.72
IC50 [6]: 5.93 µM
growth inhibition (GI) [7]: Active
inhibition at 0.1 µM [8]: 44.5%
growth inhibition (GI) [9]: Active
selectivity ratio [10]: 0.88
inhibition at 0.4 µM [11]: 81.6%
inhibition at 0.4 µM [12]: 63.9%
inhibition at 0.4 µM [13]: 74.5%
Ratio IC50 [16]: 1.79
inhibition at 0.2 µM [19]: 53.7%
growth inhibition (GI) [20]: Active
inhibition at 0.4 µM [22]: 69.9%
inhibition at 0.1 µM [23]: 22.4%
inhibition at 0.1 µM [26]: 18.3%
growth inhibition (GI) [27]: Active
inhibition at 0.1 µM [29]: 24.9%
inhibition at 0.2 µM [31]: 67.8%
selectivity ratio [32]: 2.02

Activity [33]: inactive
Activity [34]: Active
Activity [35]: inactive
deltaTm [14]: Dose-dependent effect
Tm [15]: 47 °C
Tm [18]: 43.1 °C
Activity [21]: Dose-dependent effect
Activity [36]: Active
Activity [25]: inactive
Tm [30]: 56.1 °C
Structure (SMILES): O=C1C(=C2c3cccnc3-c3ncccc32)SC(=S)N1Cc1nnc(-c2ccc(Br)cc2)o1
growth inhibition (GI) [7]: Active
growth inhibition (GI) [9]: Active
growth inhibition (GI) [20]: Active
growth inhibition (GI) [27]: Active
